Values quoted from earlier work in patent US5747458A, “Urokinase receptor ligands” (Chiron Corporation, priority 1995, dated 1998).

Assays:
uPA:uPAR interaction = uPA:uPAR interaction (Homo sapiens, UniProt Q03405)
uPAR = uPAR (Homo sapiens, UniProt Q03405)
Sequence of uPAR (Q03405 23-335, species assumed): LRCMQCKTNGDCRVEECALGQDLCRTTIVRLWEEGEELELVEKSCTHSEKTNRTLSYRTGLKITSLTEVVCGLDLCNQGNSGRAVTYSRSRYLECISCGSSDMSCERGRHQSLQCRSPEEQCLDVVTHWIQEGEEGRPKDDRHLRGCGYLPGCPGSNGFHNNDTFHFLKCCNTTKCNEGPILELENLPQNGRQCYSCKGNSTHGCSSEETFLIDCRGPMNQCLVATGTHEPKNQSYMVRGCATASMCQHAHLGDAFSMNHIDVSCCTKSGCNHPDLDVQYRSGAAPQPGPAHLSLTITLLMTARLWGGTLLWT

Sequence of uPA:uPAR interaction (Q03405 23-305 limits assumed): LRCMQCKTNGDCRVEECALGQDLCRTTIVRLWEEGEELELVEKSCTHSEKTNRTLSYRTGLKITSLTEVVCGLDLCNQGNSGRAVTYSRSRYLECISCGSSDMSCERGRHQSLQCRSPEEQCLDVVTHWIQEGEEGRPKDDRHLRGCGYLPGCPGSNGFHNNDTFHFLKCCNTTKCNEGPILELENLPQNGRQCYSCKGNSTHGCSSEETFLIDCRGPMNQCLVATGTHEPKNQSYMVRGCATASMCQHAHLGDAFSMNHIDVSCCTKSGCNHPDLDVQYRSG

Row | affinity relative to intact ATF (fold less) (uPAR; compared with intact ATF) | Kd (uPAR; read-out: affinity for uPAR) [nM] | Molecule | effective concentration for inhibiting the uPA:uPAR interaction (uPA:uPAR interaction)
1 | – | – | O=S(=O)(O)c1cccc2cccc(Nc3ccccc3)c12 [8-anilinonaphthalene sulfonic acid] | effective only at micromolar concentrations
2 | – | – | Cc1ccc(C(=O)Nc2ccc(S(=O)(=O)O)c3cc(S(=O)(=O)O)cc(S(=O)(=O)O)c23)cc1NC(=O)c1cccc(NC(=O)Nc2cccc(C(=O)Nc3cc(C(=O)Nc4ccc(S(=O)(=O)O)c5cc(S(=O)(=O)O)cc(S(=O)(=O)O)c45)ccc3C)c2)c1 [suramin] | effective only at micromolar concentrations
3 | about 100 fold | 40 | uPA12-32: critical binding domain alone, residues 12-32 of the EGF-like domain of uPA (DCLNGGTCVSNKYFSNIHWCN; UniProt P00749 32-52, looked up, fragment) | –
